Source: patent US8048879B2, “Substituted 4,5,6,7-tetrahydro-isoxazolo[4,5-c]pyridine compounds and use thereof for producing medicaments” (Gruenenthal GmbH, priority 2005, dated 2011)

What was measured:
5-HT transporter = biological target: T1, 5-HT transporter (Rattus norvegicus, UniProt P31652); test: 5-HT uptake inhibition, synaptosomes from rat brain (medulla and pons); assay type: biochemical
T1 construct: from tissue; host or cells: rat brain (medulla and pons), synaptosomes, P2 fraction
In short: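 Freshly isolated rat brain synaptosomes (P2 fraction): hypothalamus for NA uptake, medulla/pons for 5-HT uptake. Uptake of [3H]-NA (7.5 min) or [3H]-5-HT (5 min) at room temperature under O2, stopped by filtration over GF/B. Retained radioactivity counted by scintillation.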

NA transporter = biological target: T2, NA transporter (Rattus norvegicus, UniProt Q9WTR4); test: Noradrenalin (NA) uptake inhibition, synaptosomes from rat brain (hypothalamus); assay type: biochemical
T2 construct: from tissue; host or cells: rat brain (hypothalamus), synaptosomes, P2 fraction
Description: b) Method for Determining Noradrenalin and 5-HT Uptake Inhibition:
Synaptosomes from rat brain regions are freshly isolated for in vitro studies, as described in the publication “The isolation of nerve endings from brain” by E. G. Gray and V. P. Whittaker, J. Anatomy 96, pages 79-88, 1962. The corresponding literature description is hereby introduced as a reference and is deemed to be part of the disclosure.
The tissue (hypothalamus for the determination of noradrenalin uptake inhibition and medulla and pons for the determination of 5-HT uptake inhibition) is homogenised in ice-cooled 0.32 M sucrose (100 mg of tissue/1 mL) in a glass homogeniser with Teflon pestle using five complete up and down strokes at 840 revolutions/minute.
The homogenate is centrifuged at 4° C. for 10 minutes at 1000 g. After subsequent centrifugation at 17000 g for 55 minutes, the synaptosomes (P2 fraction) are obtained, which are resuspended in 0.32 M […] (0.5 mL/100 mg of original weight).
The particular uptake is measured in a 96-well microtitre plate. The volume is 250 μL and the incubation proceeds at room temperature (approx. 20-25° C.) under an O2 atmosphere.
The incubation time is 7.5 minutes for [^3H]-NA and 5 minutes for [^3H]-5-HT. The 96 samples are then filtered through a Unifilter GF/B® microtitre plate (Packard) and washed with 200 mL of incubated buffer using a “Brabdel MPXRI-96T Cell-Harvester”. The Unifilter GF/B plate is dried for 1 hour at 55° C. The plate is then sealed with a Back Seal® (Packard) and 35 μL of scintillation fluid are added per well (Ultima Gold®, Packard). After sealing with a top Seal® (Packard) and establishing an equilibrium (around 5 hours), radioactivity is determined in a “Trilux 1450 Microbeta” (Wallac).
The quantity of protein used in the above determination corresponds to the values known from the literature, as for example described in “Protein measurement with the folin phenol reagent”, Lowry et al., J. Biol. Chem., 193, 265-275, 1951.
A detailed description of the method may additionally be found in the literature, for example in M. Ch. Frink, H.-H. Hennies, W. Engelberger, M. Haurand and B. Wilffert (1996) Arzneim.-Forsch./Drug Res. 46 (III), 11, 1029-1036.
The following characteristics were determined for the NA or 5-HT transporter: […]

T1 sequence (P31652 whole entry): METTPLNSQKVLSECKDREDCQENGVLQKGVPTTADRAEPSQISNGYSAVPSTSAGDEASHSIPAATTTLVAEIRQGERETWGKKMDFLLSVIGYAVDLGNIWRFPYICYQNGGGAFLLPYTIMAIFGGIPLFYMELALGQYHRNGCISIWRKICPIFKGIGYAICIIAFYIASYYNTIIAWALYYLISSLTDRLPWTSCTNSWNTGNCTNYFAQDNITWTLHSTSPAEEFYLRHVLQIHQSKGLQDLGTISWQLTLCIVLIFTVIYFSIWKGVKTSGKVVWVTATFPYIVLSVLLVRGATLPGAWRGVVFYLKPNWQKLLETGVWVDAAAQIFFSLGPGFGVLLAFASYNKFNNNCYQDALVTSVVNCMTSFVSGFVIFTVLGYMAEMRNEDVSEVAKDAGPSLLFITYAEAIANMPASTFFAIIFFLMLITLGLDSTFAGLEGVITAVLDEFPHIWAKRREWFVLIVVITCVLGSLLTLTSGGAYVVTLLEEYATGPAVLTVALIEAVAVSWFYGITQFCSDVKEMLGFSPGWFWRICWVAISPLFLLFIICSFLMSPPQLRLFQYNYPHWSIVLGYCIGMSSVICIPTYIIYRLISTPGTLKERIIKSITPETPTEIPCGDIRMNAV
T2 sequence (Q9WTR4 1-597): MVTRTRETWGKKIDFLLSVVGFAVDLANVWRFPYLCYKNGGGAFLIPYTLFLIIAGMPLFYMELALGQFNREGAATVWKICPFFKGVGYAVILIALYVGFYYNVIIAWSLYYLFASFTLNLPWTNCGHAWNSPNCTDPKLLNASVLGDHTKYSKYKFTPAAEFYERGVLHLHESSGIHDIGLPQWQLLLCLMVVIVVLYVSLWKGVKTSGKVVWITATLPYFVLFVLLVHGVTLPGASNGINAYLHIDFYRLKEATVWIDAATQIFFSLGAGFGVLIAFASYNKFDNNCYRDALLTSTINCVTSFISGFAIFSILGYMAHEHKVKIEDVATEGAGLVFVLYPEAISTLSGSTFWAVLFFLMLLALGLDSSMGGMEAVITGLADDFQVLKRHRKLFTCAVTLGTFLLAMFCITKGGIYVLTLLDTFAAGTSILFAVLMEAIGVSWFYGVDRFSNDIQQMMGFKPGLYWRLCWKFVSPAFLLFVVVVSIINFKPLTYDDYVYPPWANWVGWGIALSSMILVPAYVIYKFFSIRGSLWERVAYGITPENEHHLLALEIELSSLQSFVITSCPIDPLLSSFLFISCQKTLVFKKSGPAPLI

| SMILES | 5-HT uptake (rat), 10 μM, % inhibition (5-HT transporter) [%] | NA Uptake (rat), 10 μM, % inhibition (NA transporter) [%] | inhibition at 10 µM (5-HT transporter) [%] | inhibition at 10 µM (NA transporter) [%] |
| --- | --- | --- | --- | --- |
| Cc1ccc(NC(=O)N2CCc3onc(C(=O)NCCc4ccccc4)c3C2)cc1[N+](=O)[O-] [Example 4, 6,7-dihydro-4H-isoxazolo[4,5-c]pyridine-3,5-dicarboxylic acid 5-[(4-methyl-3-nitro-phenyl) amide] 3-(phenethyl amide)] | 45 | 57 |  |  |
| O=C(NCCc1ccccc1)c1noc2c1CN(C(=O)Nc1cccc(F)c1)CC2 [Example 8, 6,7-dihydro-4H-isoxazolo[4,5-c]pyridine-3,5-dicarboxylic acid 5-[(3-fluorophenyl) amide] 3-(phenethyl amide)] | 54 | 66 |  |  |
| O=C(NCc1ccccc1)c1noc2c1CN(C(=O)NCCc1ccccc1)CC2 [Example 10, 6,7-dihydro-4H-isoxazolo[4,5-c]pyridine-3,5-dicarboxylic acid 3-benzyl amide 5-(phenethyl amide)] | 51 | 42 |  |  |
| N#Cc1cccc(NC(=O)N2CCc3onc(C(=O)NCc4cccs4)c3C2)c1 [Example 12, 6,7-dihydro-4H-isoxazolo[4,5-c]pyridine-3,5-dicarboxylic acid 5-[(3-cyano-phenyl) amide]3-[(thiophen-2-ylmethyl) amide]] | 51 | 46 |  |  |
| CCOc1ccc(NC(=O)N2CCc3onc(C(=O)Nc4ccccc4)c3C2)cc1 [Example 13, 6,7-dihydro-4H-isoxazolo[4,5-c]pyridine-3,5-dicarboxylic acid 5-[(4-ethoxy-phenyl) amide] 3-phenyl amide] | 48 | 51 |  |  |
| CC(NC(=O)N1CCc2onc(C(=O)NCCc3ccccc3)c2C1)c1cccc2ccccc12 (centres unmarked) [Example 18, 6,7-dihydro-4H-isoxazolo[4,5-c]pyridine-3,5-dicarboxylic acid 5-[(1-naphthalen-1-yl-ethyl) amide]3-(phenethyl amide)] | 42 | 47 |  |  |
| O=C(O)CC1(CC(=O)N2CCc3onc(C(=O)Nc4ccccc4)c3C2)CCCC1 [Example 28, {1-[2-oxo-2-(3-phenylcarbamoyl-6,7-dihydro-4H-isoxazolo[4,5-c]pyridin-5-yl)-ethyl]-cyclopentyl}acetic acid] |  |  | 55 | 44 |
| O=C(NC1CCN(Cc2ccc3ccccc3c2)C1)c1noc2c1CN(S(=O)(=O)c1ccccc1)CC2 (centres unmarked) [Example 33, 5-benzenesulfonyl-4,5,6,7-tetrahydro-isoxazolo[4,5-c]pyridine-3-carboxylic acid (1-naphthalen-2-ylmethyl-pyrrolidin-3-yl) amide] |  |  | 74 | 88 |
| COc1ccc(CNC(=O)c2noc3c2CN(S(=O)(=O)c2ccccc2)CC3)cc1OC [Example 47, 5-benzenesulfonyl-4,5,6,7-tetrahydro-isoxazolo[4,5-c]pyridine-3-carboxylic acid 3,4-dimethoxy-benzyl amide] |  |  | 68 | 67 |
| O=C(c1noc2c1CN(S(=O)(=O)c1cc(Cl)ccc1Cl)CC2)N(CCc1ccccc1)Cc1ccccc1 [Example 59, 5-(2,5-dichloro-benzenesulfonyl)-4,5,6,7-tetrahydro-isoxazolo[4,5-c]pyridine-3-carboxylic acid benzyl-phenethyl amide] |  |  | 71 | 79 |
| O=C(c1noc2c1CN(S(=O)(=O)c1cccc(C(F)(F)F)c1)CC2)N(CCc1ccccc1)Cc1ccccc1 [Example 68, 5-(3-trifluoromethyl-benzenesulfonyl)-4,5,6,7-tetrahydro-isoxazolo[4,5-c]pyridine-3-carboxylic acid benzyl-phenethyl amide] |  |  | 63 | 84 |
| O=C(c1noc2c1CN(S(=O)(=O)c1ccccc1)CC2)N1CCN(CC=Cc2ccccc2)CC1 [Example 97, (5-benzenesulfonyl-4,5,6,7-tetrahydro-isoxazolo[4,5-c]pyridin-3-yl)-[4-(3-phenyl-allyl)-piperazin-1-yl]-methanone] |  |  | 67 | 75 |
| O=C(NC1CCN(Cc2ccccc2)C1)c1noc2c1CN(S(=O)(=O)c1ccc(OC(F)(F)F)cc1)CC2 (centres unmarked) [Example 117, 5-(4-trifluoromethoxy-benzenesulfonyl)-4,5,6,7-tetrahydro-isoxazolo[4,5-c]pyridine-3-carboxylic acid (1-benzyl-pyrrolidin-3-yl)-amide] |  |  | 68 | 75 |
| Cc1ccc(S(=O)(=O)N2CCc3onc(C(=O)NC(C)C(=O)OC(C)(C)C)c3C2)cc1 (centres unmarked) [Example 120, 2-{[5-(toluene-4-sulfonyl)-4,5,6,7-tetrahydro-isoxazolo[4,5-c]pyridine-3-carbonyl]-amino}-propionic acid tert-butyl ester] |  |  |  | 62 |
| CCOC(=O)CCNC(=O)c1noc2c1CN(S(=O)(=O)c1ccc(Cl)cc1)CC2 [Example 121, 3-{[5-(4-chloro-benzenesulfonyl)-4,5,6,7-tetrahydro-isoxazolo[4,5-c]pyridine-3-carbonyl]-amino}-propionic acid ethyl ester] |  |  |  | 61 |
| CN(C)S(=O)(=O)N1CCc2onc(C(=O)NCCc3ccc(Cl)c(Cl)c3)c2C1 [Example 122, 5-dimethylsulfamoyl-4,5,6,7-tetrahydro-isoxazolo[4,5-c]pyridine-3-carboxylic acid [2-(3,4-dichloro-phenyl)-ethyl] amide] |  |  |  | 63 |
| CCOC(=O)CCNC(=O)c1noc2c1CN(C(=O)Cc1ccc3ccccc3c1)CC2 [Example 125, 3-{[5-(2-naphthalen-2-yl-acetyl)-4,5,6,7-tetrahydro-isoxazolo[4,5-c]pyridine-3-carbonyl]-amino}-propionic acid ethyl ester] |  |  |  | 63 |
| COc1ccc(CNC(=S)N2CCc3onc(C(=O)NC4CCCC4)c3C2)cc1 [Example 127, 5-(4-methoxy-benzylthiocarbamoyl)-4,5,6,7-tetrahydro-isoxazolo[4,5-c]pyridine-3-carboxylic acid cyclopentyl amide] |  |  |  | 63 |
| COCCNC(=S)N1CCc2onc(C(=O)NCCc3ccccc3)c2C1 [Example 130, 5-(2-methoxy-ethylthiocarbamoyl)-4,5,6,7-tetrahydro-isoxazolo[4,5-c]pyridine-3-carboxylic acid phenethyl amide] |  |  |  | 67 |
| O=C(NCCc1ccccc1)c1noc2c1CN(C(=S)Nc1c(F)c(F)c(F)c(F)c1F)CC2 [Example 131, 5-pentafluorophenylthiocarbamoyl-4,5,6,7-tetrahydro-isoxazolo[4,5-c]pyridine-3-carboxylic acid phenethyl amide] |  | 73 |  |  |
| CC(NC(=S)N1CCc2onc(C(=O)NCCc3ccccc3)c2C1)c1ccccc1 (centres unmarked) [Example 132, 5-(1-phenyl-ethylthiocarbamoyl)-4,5,6,7-tetrahydro-isoxazolo[4,5-c]pyridine-3-carboxylic acid phenethyl amide] |  |  |  | 76 |
| O=C(Nc1ccccc1)c1noc2c1CN(Cc1ccc3ccccc3c1Br)CC2 [Example 135, 5-(1-bromo-naphthalen-2-ylmethyl)-4,5,6,7-tetrahydro-isoxazolo[4,5-c]pyridine-3-carboxylic acid phenyl amide] |  |  |  | 60 |
| O=C(c1noc2c1CN(S(=O)(=O)c1ccc(Cl)c(Cl)c1)CC2)N1CCN(c2nccs2)CC1 [Example 140, (5-(3,4-dichlorophenylsulfonyl)-4,5,6,7-tetrahydroisoxazolo[4,5-c]pyridin-3-yl)(4-(thiazol-2-yl)piperazin-1-yl)methanone] |  |  | 47 | 46 |
| Cc1cc(C)c(S(=O)(=O)N2CCc3onc(C(=O)N4CCN(c5nccs5)CC4)c3C2)c(C)c1 [Example 141, (5-(mesitylsulfonyl)-4,5,6,7-tetrahydroisoxazolo[4,5-c]pyridin-3-yl)(4-(thiazol-2-yl)piperazin-1-yl)methanone] |  |  | 58 | 41 |
| O=C(c1noc2c1CN(S(=O)(=O)c1cccc3ccccc13)CC2)N1CCN(c2nccs2)CC1 [Example 142, (5-(naphthalen-1-ylsulfonyl)-4,5,6,7-tetrahydroisoxazolo[4,5-c]pyridin-3-yl)(4-(thiazol-2-yl)piperazin-1-yl)methanone] |  |  | 30 | 31 |
